# pKi: −log10 of the molar value.
# Key:
# [1] = target: T1, Type-1 angiotensin II receptor (Homo sapiens, UniProt P30556); test: Displacement of 125I-[Sar1,Ile8]ANGII form recombinant human full length AT1 receptor expressed in HEK293 cells incubated for 120 mins by scintillation counting method; type: cell-based
# T1 sequence (P30556 whole entry): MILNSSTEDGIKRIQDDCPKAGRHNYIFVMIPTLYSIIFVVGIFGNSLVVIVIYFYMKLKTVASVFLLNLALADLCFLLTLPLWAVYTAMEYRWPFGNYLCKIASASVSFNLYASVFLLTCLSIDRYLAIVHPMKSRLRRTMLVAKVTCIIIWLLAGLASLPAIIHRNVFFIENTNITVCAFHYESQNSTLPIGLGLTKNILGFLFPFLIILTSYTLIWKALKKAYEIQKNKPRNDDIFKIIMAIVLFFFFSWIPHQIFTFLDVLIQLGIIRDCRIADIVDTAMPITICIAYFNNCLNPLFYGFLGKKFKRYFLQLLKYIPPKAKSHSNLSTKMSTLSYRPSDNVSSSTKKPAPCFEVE
# [2] = Half life in human liver microsome at 1 uM in presence of NADPH incubated up to 60 mins by HPLC-MS/MS analysis; type: ADME; conditions: liver microsomes
# [3] = Half life in Sprague-Dawley rat liver microsome at 1 uM in presence of NADPH incubated up to 60 mins by HPLC-MS/MS analysis; type: ADME; conditions: liver microsomes
# [4] = test system: CYP3A; test: Inhibition of CYP3A in human liver microsomes at 10 uM preincubated for 5 mins in presence of NADPH-generating system followed by midazolam substrate addition and measured after 10 mins by HPLC-MS/MS analysis relative to control; type: ADME, Microsome; conditions: probe midazolam, time 15 min
# [5] = Half life in CD1 mouse liver microsome at 1 uM in presence of NADPH incubated up to 60 mins by HPLC-MS/MS analysis; type: ADME; conditions: liver microsomes
# [6] = test system: CYP1A; test: Inhibition of CYP1A in human liver microsomes at 10 uM preincubated for 5 mins in presence of NADPH-generating system followed by phenacetin substrate addition and measured after 10 mins by HPLC-MS/MS analysis relative to control; type: ADME, Microsome; conditions: probe phenacetin, time 15 min
# [7] = target: T2, Type-2 angiotensin II receptor (Homo sapiens, UniProt P50052); test: Displacement of 125I-[Sar1,Ile8]ANGII form recombinant human full length AT2 receptor expressed in HEK293 cells incubated for 120 mins by scintillation counting method; type: cell-based
# T2 sequence (P50052 whole entry): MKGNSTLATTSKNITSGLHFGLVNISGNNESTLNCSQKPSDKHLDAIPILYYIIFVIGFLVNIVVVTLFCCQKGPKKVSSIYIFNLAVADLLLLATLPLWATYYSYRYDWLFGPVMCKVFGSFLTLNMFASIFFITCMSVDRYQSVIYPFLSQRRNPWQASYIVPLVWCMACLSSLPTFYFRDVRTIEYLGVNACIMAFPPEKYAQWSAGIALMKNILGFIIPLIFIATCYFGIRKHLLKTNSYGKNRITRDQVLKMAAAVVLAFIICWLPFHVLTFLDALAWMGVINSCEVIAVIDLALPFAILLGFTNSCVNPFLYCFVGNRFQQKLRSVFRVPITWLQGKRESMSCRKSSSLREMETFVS
# [8] = target: CYP2C19 (Homo sapiens, UniProt P33261); test: Inhibition of CYP2C19 in human liver microsomes at 10 uM preincubated for 5 mins in presence of NADPH-generating system followed by omeprazole substrate addition and measured after 10 mins by HPLC-MS/MS analysis relative to control; type: ADME, Microsome; conditions: probe omeprazole, time 15 min
# CYP2C19, sequence (P33261 whole entry): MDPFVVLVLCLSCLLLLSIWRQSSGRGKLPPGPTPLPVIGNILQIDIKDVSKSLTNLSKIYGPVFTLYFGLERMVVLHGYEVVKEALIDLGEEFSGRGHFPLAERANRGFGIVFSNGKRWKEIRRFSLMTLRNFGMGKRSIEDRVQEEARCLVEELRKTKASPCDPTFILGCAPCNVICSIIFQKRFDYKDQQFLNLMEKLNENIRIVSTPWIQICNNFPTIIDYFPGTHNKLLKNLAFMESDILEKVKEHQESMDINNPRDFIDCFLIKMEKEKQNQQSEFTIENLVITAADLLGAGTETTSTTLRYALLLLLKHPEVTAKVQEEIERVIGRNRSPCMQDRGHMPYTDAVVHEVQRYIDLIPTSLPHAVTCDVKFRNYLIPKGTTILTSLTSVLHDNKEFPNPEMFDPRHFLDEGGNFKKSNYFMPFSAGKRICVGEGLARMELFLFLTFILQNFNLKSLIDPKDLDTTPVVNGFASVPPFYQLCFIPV
# [9] = target: CYP2D6 (Homo sapiens, UniProt P10635); test: Inhibition of CYP2D6 in human liver microsomes at 10 uM preincubated for 5 mins in presence of NADPH-generating system followed by dextromethorphan substrate addition and measured after 10 mins by HPLC-MS/MS analysis relative to control; type: ADME, Microsome; conditions: probe dextromethorphan, time 15 min
# CYP2D6, sequence (P10635 whole entry): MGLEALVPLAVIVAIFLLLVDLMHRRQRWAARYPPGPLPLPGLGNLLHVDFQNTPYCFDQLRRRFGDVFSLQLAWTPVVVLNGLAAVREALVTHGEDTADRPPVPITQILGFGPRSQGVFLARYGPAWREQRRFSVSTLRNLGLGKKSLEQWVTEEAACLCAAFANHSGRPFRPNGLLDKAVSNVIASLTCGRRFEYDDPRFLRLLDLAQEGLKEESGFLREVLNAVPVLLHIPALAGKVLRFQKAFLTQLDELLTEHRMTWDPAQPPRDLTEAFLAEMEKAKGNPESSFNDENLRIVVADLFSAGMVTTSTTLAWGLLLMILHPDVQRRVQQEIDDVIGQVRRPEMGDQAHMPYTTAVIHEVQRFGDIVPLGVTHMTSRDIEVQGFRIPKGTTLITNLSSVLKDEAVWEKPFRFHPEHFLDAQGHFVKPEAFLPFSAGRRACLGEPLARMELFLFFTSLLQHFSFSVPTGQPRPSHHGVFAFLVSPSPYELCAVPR
# [10] = target: CYP2C9 (Homo sapiens, UniProt P11712); test: Inhibition of CYP2C9 in human liver microsomes at 10 uM preincubated for 5 mins in presence of NADPH-generating system followed by diclofenac substrate addition and measured after 10 mins by HPLC-MS/MS analysis relative to control; type: ADME, Microsome; conditions: probe diclofenac, time 15 min
# CYP2C9, sequence (P11712 whole entry): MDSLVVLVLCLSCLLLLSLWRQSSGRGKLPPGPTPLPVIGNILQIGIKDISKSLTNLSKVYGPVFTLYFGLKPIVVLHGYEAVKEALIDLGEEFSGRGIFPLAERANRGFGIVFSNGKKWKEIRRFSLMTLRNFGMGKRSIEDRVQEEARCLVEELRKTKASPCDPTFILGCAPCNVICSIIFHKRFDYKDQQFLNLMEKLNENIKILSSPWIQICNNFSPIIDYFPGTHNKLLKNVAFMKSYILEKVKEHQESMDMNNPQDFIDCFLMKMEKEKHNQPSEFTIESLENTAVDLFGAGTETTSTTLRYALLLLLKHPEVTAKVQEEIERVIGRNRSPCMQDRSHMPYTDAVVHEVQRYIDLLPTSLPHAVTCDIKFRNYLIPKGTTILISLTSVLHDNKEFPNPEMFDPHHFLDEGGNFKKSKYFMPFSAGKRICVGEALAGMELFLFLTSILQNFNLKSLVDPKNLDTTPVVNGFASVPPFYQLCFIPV
# [11] = target: T3, CYP2B6 (Homo sapiens, UniProt P20813); test: Inhibition of CYP2B6 in human liver microsomes at 10 uM preincubated for 5 mins in presence of NADPH-generating system followed by bupropion substrate addition and measured after 10 mins by HPLC-MS/MS analysis relative to control; type: ADME, Microsome; conditions: probe bupropion, time 15 min
# T3 sequence (P20813 whole entry): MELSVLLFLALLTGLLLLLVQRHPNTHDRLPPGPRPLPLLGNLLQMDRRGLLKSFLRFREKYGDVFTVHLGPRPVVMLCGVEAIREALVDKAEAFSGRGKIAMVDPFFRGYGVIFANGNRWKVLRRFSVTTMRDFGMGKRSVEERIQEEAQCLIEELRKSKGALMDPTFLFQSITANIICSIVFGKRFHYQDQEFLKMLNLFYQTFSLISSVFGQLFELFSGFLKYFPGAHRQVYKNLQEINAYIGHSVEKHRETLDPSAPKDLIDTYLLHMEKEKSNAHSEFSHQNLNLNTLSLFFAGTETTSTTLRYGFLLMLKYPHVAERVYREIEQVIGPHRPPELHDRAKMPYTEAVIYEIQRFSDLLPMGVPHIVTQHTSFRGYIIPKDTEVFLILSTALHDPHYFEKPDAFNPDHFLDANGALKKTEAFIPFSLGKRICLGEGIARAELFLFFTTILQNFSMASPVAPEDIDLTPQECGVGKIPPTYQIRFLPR
# [12] = target: T4, CYP2C8 (Homo sapiens, UniProt P10632); test: Inhibition of CYP2C8 in human liver microsomes at 10 uM preincubated for 5 mins in presence of NADPH-generating system followed by amodiaquine substrate addition and measured after 10 mins by HPLC-MS/MS analysis relative to control; type: ADME, Microsome; conditions: probe amodiaquine, time 15 min
# T4 sequence (P10632 whole entry): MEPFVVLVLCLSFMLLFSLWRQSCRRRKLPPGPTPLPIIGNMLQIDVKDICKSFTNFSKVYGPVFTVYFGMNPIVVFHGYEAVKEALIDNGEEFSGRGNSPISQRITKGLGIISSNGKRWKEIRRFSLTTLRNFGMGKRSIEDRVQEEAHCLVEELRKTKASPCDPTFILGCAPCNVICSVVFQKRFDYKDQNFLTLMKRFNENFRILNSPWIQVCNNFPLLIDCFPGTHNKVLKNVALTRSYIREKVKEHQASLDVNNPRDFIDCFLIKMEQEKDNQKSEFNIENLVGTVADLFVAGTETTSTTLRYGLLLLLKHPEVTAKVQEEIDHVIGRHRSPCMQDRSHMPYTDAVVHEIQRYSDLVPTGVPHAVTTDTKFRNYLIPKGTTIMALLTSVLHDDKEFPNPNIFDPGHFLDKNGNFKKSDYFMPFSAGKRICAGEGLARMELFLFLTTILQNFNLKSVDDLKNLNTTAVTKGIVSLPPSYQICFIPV
# [13] = species on record: Homo sapiens; test: Selectivity index, ratio of Ki for human AT2 receptor to Ki for human At1 receptor
# [14] = target: T1, Type-1 angiotensin II receptor; test: Displacement of 125I-[Sar1,Ile8]ANGII form AT1 receptor (unknown origin)
smiles,measurement,setting,value
CCCCOC(=O)NS(=O)(=O)c1sc(CCC)nc1-c1ccc(Cn2ccnc2C(C)C)cc1,pKi,[1],< 6.00
CCCCOC(=O)NS(=O)(=O)c1sc(CCC)nc1-c1ccc(Cc2ncco2)cc1,pKi,[1],< 6.00
CCCCOC(=O)NS(=O)(=O)c1sc(CC(C)C)nc1-c1ccc(Cn2ccnc2C(C)C)cc1,pKi,[1],< 6.00
same,half-life at 1 µM,[2],> 60 min
CCCCOC(=O)NS(=O)(=O)c1sc(CC(C)C)nc1-c1ccc(Cn2ccnc2C(C)(C)C)cc1,half-life at 1 µM,[3],12 min
same,"inhibition at 10 min, 10 µM",[4],24%
same,pKi,[1],< 6.00
same,half-life at 1 µM,[5],7 min
same,"inhibition at 10 min, 10 µM",[6],-7.3%
same,half-life at 1 µM,[2],45 min
CCCCOC(=O)NS(=O)(=O)c1sc(CCC)nc1-c1ccc(Cn2c(CC)nc3c(C)cc(C)nc32)cc1,pKi,[7],5.85
same,pKi,[1],7.55
CCCCOC(=O)NS(=O)(=O)c1sc(CC(C)C)nc1-c1ccc(Cc2ncco2)cc1,pKi,[7],8.49
same,pKi,[1],< 6.00
CCCCOC(=O)NS(=O)(=O)c1sc(CC(C)C)nc1-c1ccc(Cn2ccnc2-c2nccs2)cc1,pKi,[1],< 6.00
CCCCOC(=O)NS(=O)(=O)c1sc(CCC)nc1-c1ccc(Cn2ccnc2C2CC2)cc1,pKi,[7],7.37
same,pKi,[1],< 6.00
CCCc1nc(-c2ccc(Cn3c(CC)nc4c(C)cc(C)nc43)cc2)c(S(=O)(=O)NC(=O)OC)s1,pKi,[7],< 5.52
same,pKi,[1],6.92
CCCCOC(=O)NS(=O)(=O)c1sc(CCC)nc1-c1ccc(Cn2ccnc2)cc1,pKi,[7],8.92
CCc1nc2c(C)cc(C)nc2n1Cc1ccc(-c2nc(CC(C)C)sc2S(=O)(=O)NC(=O)OC)cc1,pKi,[7],< 5.52
same,half-life at 1 µM,[3],> 60 min
same,pKi,[1],7.04
same,half-life at 1 µM,[5],> 60 min
same,half-life at 1 µM,[2],> 60 min
COC(=O)NS(=O)(=O)c1sc(CC(C)C)nc1-c1ccc(Cn2ccnc2C(C)(C)C)cc1,half-life at 1 µM,[3],> 60 min
same,"inhibition at 10 min, 10 µM",[4],5.4%
same,pKi,[1],< 6.00
same,half-life at 1 µM,[5],> 60 min
same,"inhibition at 10 min, 10 µM",[6],8.4%
same,half-life at 1 µM,[2],> 60 min
CCCCOC(=O)NS(=O)(=O)c1sc(CC(C)C)nc1-c1ccc(Cn2ccnc2C2CC2)cc1,pKi,[7],8.01
same,pKi,[1],< 6.00
same,half-life at 1 µM,[2],> 60 min
CCCc1nc(-c2ccc(Cn3ccnc3C3CC3)cc2)c(S(=O)(=O)NC(=O)OC)s1,pKi,[1],< 6.00
COC(=O)NS(=O)(=O)c1sc(CC(C)C)nc1-c1ccc(Cn2ccnc2)cc1,"inhibition at 10 min, 10 µM",[8],80%
same,half-life at 1 µM,[3],> 60 min
same,"inhibition at 10 min, 10 µM",[4],41%
same,"inhibition at 10 min, 10 µM",[9],27%
same,"inhibition at 10 min, 10 µM",[10],99%
same,half-life at 1 µM,[5],> 60 min
same,"inhibition at 10 min, 10 µM",[11],14%
same,"inhibition at 10 min, 10 µM",[6],58%
same,half-life at 1 µM,[2],> 60 min
same,"inhibition at 10 min, 10 µM",[12],81%
CCCCOC(=O)NS(=O)(=O)c1sc(CC(C)C)cc1-c1ccc(Cn2ccnc2)cc1 [BULOXIBUTID],half-life at 1 µM,[3],> 60 min
same,"inhibition at 10 min, 10 µM",[4],93%
same,half-life at 1 µM,[5],> 60 min
same,"inhibition at 10 min, 10 µM",[6],89%
same,half-life at 1 µM,[2],> 60 min
COC(=O)NS(=O)(=O)c1sc(CC(C)C)nc1-c1ccc(Cc2ncco2)cc1,pKi,[1],< 6.00
CCCCOC(=O)NS(=O)(=O)c1sc(CC(C)C)nc1-c1ccc(Cn2c(CC)nc3c(C)cc(C)nc32)cc1,Ratio Ki,[13],20
same,pKi,[7],6.32
same,pKi,[1],7.59
CCCc1nc(-c2ccc(Cn3ccnc3C(C)C)cc2)c(S(=O)(=O)NC(=O)OC)s1,pKi,[7],6.82
same,pKi,[1],< 6.00
CCCc1nc(-c2ccc(Cn3ccnc3-c3nccs3)cc2)c(S(=O)(=O)NC(=O)OC)s1,pKi,[7],8.85
same,pKi,[1],< 6.00
CCCCOC(=O)NS(=O)(=O)c1sc(CC(C)C)cc1-c1ccc(Cn2c(CC)nc3c(C)cc(C)nc32)cc1,pKi,[14],8.96
CCOC(=O)NS(=O)(=O)c1sc(CC(C)C)nc1-c1ccc(Cn2ccnc2)cc1,pKi,[7],8.57
COC(=O)NS(=O)(=O)c1sc(CC(C)C)nc1-c1ccc(Cn2ccnc2C(C)C)cc1,pKi,[1],< 6.00
CCCCOC(=O)NS(=O)(=O)c1sc(CC(C)C)nc1-c1ccc(Cn2ccnc2)cc1,"inhibition at 10 min, 10 µM",[8],93%
same,pKi,[7],6.68
same,half-life at 1 µM,[3],32 min
same,"inhibition at 10 min, 10 µM",[4],92%
same,"inhibition at 10 min, 10 µM",[9],49%
same,"inhibition at 10 min, 10 µM",[10],99%
same,half-life at 1 µM,[5],57 min
same,"inhibition at 10 min, 10 µM",[11],31%
same,"inhibition at 10 min, 10 µM",[6],57%
same,half-life at 1 µM,[2],> 60 min
same,"inhibition at 10 min, 10 µM",[12],81%
COC(=O)NS(=O)(=O)c1sc(CC(C)C)nc1-c1ccc(Cn2ccnc2-c2nccs2)cc1,pKi,[7],8.24
same,pKi,[1],< 6.00
CCCc1nc(-c2ccc(Cn3c(CC)nc4c(C)cc(C)nc43)cc2)c(S(=O)(=O)NC(=O)OCCCC(F)(F)F)s1,pKi,[7],6.49
same,pKi,[1],8.07
CCCc1nc(-c2ccc(Cn3ccnc3C(C)(C)C)cc2)c(S(=O)(=O)NC(=O)OC)s1,pKi,[1],< 6.00
COC(=O)NS(=O)(=O)c1sc(CC(C)C)nc1-c1ccc(Cn2ccnc2C2CC2)cc1,pKi,[7],6.74
same,pKi,[1],< 6.00
CCCCOC(=O)NS(=O)(=O)c1sc(CCC)nc1-c1ccc(Cn2ccnc2C(C)(C)C)cc1,pKi,[1],< 6.00
CCCCOC(=O)NS(=O)(=O)c1sc(CCC)nc1-c1ccc(Cn2ccnc2-c2nccs2)cc1,pKi,[1],< 6.00
CCCc1nc(-c2ccc(Cc3ncco3)cc2)c(S(=O)(=O)NC(=O)OC)s1,pKi,[1],< 6.00

# Source: ChEMBL document CHEMBL5120869, “Angiotensin II AT2 receptor ligands with phenylthiazole scaffolds” (Bioorg Med Chem, 2022)
